Experimental data published in PubChem BioAssay AID1963958 (Molecular Pharmacology Branch, DTP, NCI, 2024).

Test system: MDA-MB-231 multicell spheroids, viability
Assay: Anticancer human tumor MDA-MB-231 cell line growth inhibition [PI3K];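 also: spheroids exposed to agents for seven days before reading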;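 as to viability, T/C: percent of vehicle control luminescence with DMSO treated spheroids as 100%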
Settings: for IC50: curve of first compound; for viability, T/C: stronger effect = lower value
Procedure, shortened: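 Viability of mixed-cell spheroids was determined after exposure to pairwise combinations, one partner being inavolisib, alpelisib, duvelisib or copanlisib. Highest tested concentration matched clinical Cmax where known and 10 microM where not, descending in half-log steps.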

[1] = second compound 0.0316 µM, first compound 0.0316 µM
[2] = second compound 0.0316 µM, first compound 0.1 µM
[3] = second compound 0.0316 µM, first compound 0.316 µM
[4] = second compound 0.0316 µM, first compound 1 µM
[5] = second compound 0.0316 µM, first compound 3.16 µM
[6] = second compound 0.0316 µM, first compound 10 µM
[7] = second compound 0.1 µM, first compound 0.0316 µM
[8] = second compound 0.1 µM, first compound 0.1 µM
[9] = second compound 0.1 µM, first compound 0.316 µM
[10] = second compound 0.1 µM, first compound 1 µM
[11] = second compound 0.1 µM, first compound 3.16 µM
[12] = second compound 0.1 µM, first compound 10 µM
[13] = second compound 0.316 µM, first compound 0.0316 µM
[14] = second compound 0.316 µM, first compound 0.1 µM
[15] = second compound 0.316 µM, first compound 0.316 µM
[16] = second compound 0.316 µM, first compound 1 µM
[17] = second compound 0.316 µM, first compound 3.16 µM
[18] = second compound 0.316 µM, first compound 10 µM
[19] = second compound 1 µM, first compound 0.0316 µM
[20] = second compound 1 µM, first compound 0.1 µM
[21] = second compound 1 µM, first compound 0.316 µM
[22] = second compound 1 µM, first compound 1 µM
[23] = second compound 1 µM, first compound 3.16 µM
[24] = second compound 1 µM, first compound 10 µM

SMILES: CC1(C)CCC(Nc2ncc(C(F)(F)F)c(-c3c[nH]c4c(P(C)(C)=O)c(C#N)ccc34)n2)CN1 (stereo unspecified) + COc1c(OCCCN2CCOCC2)ccc2c3n(c(=NC(=O)c4cnc(N)nc4)nc12)CCN3
- IC50 (second compound 0.00316 µM): 3280 nM
- IC50 (second compound 0.01 µM): < 31.6 nM
- IC50 (second compound 0.0316 µM): < 31.6 nM
- IC50 (second compound 0.1 µM): < 31.6 nM
- IC50 (second compound 0.316 µM): < 31.6 nM
- IC50 (second compound 1 µM): < 31.6 nM
- viability, T/C (second compound 0.00316 µM, first compound 0.0316 µM): 52.3%
- viability, T/C (second compound 0.00316 µM, first compound 0.1 µM): 45%
- viability, T/C (second compound 0.00316 µM, first compound 0.316 µM): 49.5%
- viability, T/C (second compound 0.00316 µM, first compound 1 µM): 55%
- viability, T/C (second compound 0.00316 µM, first compound 3.16 µM): 55.7%
- viability, T/C (second compound 0.00316 µM, first compound 10 µM): 4.47%
- viability, T/C (second compound 0.01 µM, first compound 0.0316 µM): 48.4%
- viability, T/C (second compound 0.01 µM, first compound 0.1 µM): 43.3%
- viability, T/C (second compound 0.01 µM, first compound 0.316 µM): 45.8%
- viability, T/C (second compound 0.01 µM, first compound 1 µM): 50.7%
- viability, T/C (second compound 0.01 µM, first compound 3.16 µM): 45.2%
- viability, T/C (second compound 0.01 µM, first compound 10 µM): 3.69%
- viability, T/C [1]: 42.3%
- viability, T/C [2]: 43.2%
- viability, T/C [3]: 38.2%
- viability, T/C [4]: 41.5%
- viability, T/C [5]: 38.8%
- viability, T/C [6]: 3.49%
- viability, T/C [7]: 35.4%
- viability, T/C [8]: 31.1%
- viability, T/C [9]: 31.5%
- viability, T/C [10]: 30.6%
- viability, T/C [11]: 30.7%
- viability, T/C [12]: 3.64%
- viability, T/C [13]: 24.9%
- viability, T/C [14]: 23.2%
- viability, T/C [15]: 23.9%
- viability, T/C [16]: 24.6%
- viability, T/C [17]: 24.8%
- viability, T/C [18]: 2.87%
- viability, T/C [19]: 21.9%
- viability, T/C [20]: 20.9%
- viability, T/C [21]: 20.7%
- viability, T/C [22]: 22%
- viability, T/C [23]: 21.9%
- viability, T/C [24]: 2.6%

SMILES: CNC(=O)c1ccc(N2C(=S)N(c3ccc(C#N)c(C(F)(F)F)c3)C(=O)C2(C)C)cc1F + Cc1nc(NC(=O)N2CCCC2C(N)=O)sc1-c1ccnc(C(C)(C)C(F)(F)F)c1
- IC50 (second compound 0.0316 µM): > 10000 nM
- IC50 (second compound 0.1 µM): > 10000 nM
- IC50 (second compound 0.316 µM): > 10000 nM
- IC50 (second compound 1 µM): > 10000 nM
- IC50 (second compound 3.16 µM): > 10000 nM
- IC50 (second compound 10 µM): > 10000 nM
- viability, T/C [1]: 100%
- viability, T/C [2]: 94%
- viability, T/C [3]: 93.3%
- viability, T/C [4]: 95.7%
- viability, T/C [5]: 93.8%
- viability, T/C [6]: 77.2%
- viability, T/C [7]: 86.1%
- viability, T/C [8]: 88.3%
- viability, T/C [9]: 89.9%
- viability, T/C [10]: 85.6%
- viability, T/C [11]: 76.5%
- viability, T/C [12]: 57.1%
- viability, T/C [13]: 74.3%
- viability, T/C [14]: 77.5%
- viability, T/C [15]: 74.3%
- viability, T/C [16]: 76.8%
- viability, T/C [17]: 77.2%
- viability, T/C [18]: 57.8%
- viability, T/C [19]: 71.5%
- viability, T/C [20]: 69.8%
- viability, T/C [21]: 68.3%
- viability, T/C [22]: 65.9%
- viability, T/C [23]: 69.5%
- viability, T/C [24]: 57.6%
- viability, T/C (second compound 3.16 µM, first compound 0.0316 µM): 68.4%
- viability, T/C (second compound 3.16 µM, first compound 0.1 µM): 68.8%
- viability, T/C (second compound 3.16 µM, first compound 0.316 µM): 68.2%
- viability, T/C (second compound 3.16 µM, first compound 1 µM): 68.7%
- viability, T/C (second compound 3.16 µM, first compound 3.16 µM): 66.4%
- viability, T/C (second compound 3.16 µM, first compound 10 µM): 51.4%
- viability, T/C (second compound 10 µM, first compound 0.0316 µM): 62.1%
- viability, T/C (second compound 10 µM, first compound 0.1 µM): 62.5%
- viability, T/C (second compound 10 µM, first compound 0.316 µM): 63.2%
- viability, T/C (second compound 10 µM, first compound 1 µM): 66.4%
- viability, T/C (second compound 10 µM, first compound 3.16 µM): 64.1%
- viability, T/C (second compound 10 µM, first compound 10 µM): 49.9%

SMILES: Cn1cnc2c(F)c(Nc3ccc(Br)cc3Cl)c(C(=O)NOCCO)cc21 + Cc1nc(NC(=O)N2CCCC2C(N)=O)sc1-c1ccnc(C(C)(C)C(F)(F)F)c1
- IC50 (second compound 0.0316 µM): 273 nM
- IC50 (second compound 0.1 µM): 61.1 nM
- IC50 (second compound 0.316 µM): < 9.49 nM
- IC50 (second compound 1 µM): < 9.49 nM
- IC50 (second compound 3.16 µM): < 9.49 nM
- IC50 (second compound 10 µM): < 9.49 nM
- viability, T/C (second compound 0.0316 µM, first compound 0.00949 µM): 63.2%
- viability, T/C (second compound 0.0316 µM, first compound 0.03 µM): 55.5%
- viability, T/C (second compound 0.0316 µM, first compound 0.0949 µM): 56.7%
- viability, T/C (second compound 0.0316 µM, first compound 0.3 µM): 47.1%
- viability, T/C (second compound 0.0316 µM, first compound 0.949 µM): 45.2%
- viability, T/C (second compound 0.0316 µM, first compound 3 µM): 29.5%
- viability, T/C (second compound 0.1 µM, first compound 0.00949 µM): 58.1%
- viability, T/C (second compound 0.1 µM, first compound 0.03 µM): 51.1%
- viability, T/C (second compound 0.1 µM, first compound 0.0949 µM): 47.8%
- viability, T/C (second compound 0.1 µM, first compound 0.3 µM): 41.4%
- viability, T/C (second compound 0.1 µM, first compound 0.949 µM): 40%
- viability, T/C (second compound 0.1 µM, first compound 3 µM): 26.1%
- viability, T/C (second compound 0.316 µM, first compound 0.00949 µM): 50.4%
- viability, T/C (second compound 0.316 µM, first compound 0.03 µM): 43.2%
- viability, T/C (second compound 0.316 µM, first compound 0.0949 µM): 48.1%
- viability, T/C (second compound 0.316 µM, first compound 0.3 µM): 40.6%
- viability, T/C (second compound 0.316 µM, first compound 0.949 µM): 34.3%
- viability, T/C (second compound 0.316 µM, first compound 3 µM): 22.1%
- viability, T/C (second compound 1 µM, first compound 0.00949 µM): 44.4%
- viability, T/C (second compound 1 µM, first compound 0.03 µM): 37.8%
- viability, T/C (second compound 1 µM, first compound 0.0949 µM): 38.7%
- viability, T/C (second compound 1 µM, first compound 0.3 µM): 37.4%
- viability, T/C (second compound 1 µM, first compound 0.949 µM): 33%
- viability, T/C (second compound 1 µM, first compound 3 µM): 12.6%
- viability, T/C (second compound 3.16 µM, first compound 0.00949 µM): 48.4%
- viability, T/C (second compound 3.16 µM, first compound 0.03 µM): 37.1%
- viability, T/C (second compound 3.16 µM, first compound 0.0949 µM): 36.2%
- viability, T/C (second compound 3.16 µM, first compound 0.3 µM): 36.1%
- viability, T/C (second compound 3.16 µM, first compound 0.949 µM): 30.2%
- viability, T/C (second compound 3.16 µM, first compound 3 µM): 9.65%
- viability, T/C (second compound 10 µM, first compound 0.00949 µM): 39.2%
- viability, T/C (second compound 10 µM, first compound 0.03 µM): 32.7%
- viability, T/C (second compound 10 µM, first compound 0.0949 µM): 31.6%
- viability, T/C (second compound 10 µM, first compound 0.3 µM): 24.7%
- viability, T/C (second compound 10 µM, first compound 0.949 µM): 17.9%
- viability, T/C (second compound 10 µM, first compound 3 µM): 4.43%
